Data set [1] in a line: Moisturizing properties of cosmetic preparation compositions (massage oil, panel). It is filed as in vivo, human. Also noted: key: Good: Very soft and moistened touch was felt.; Moderate: Soft and moistened touch was felt.; Poor: No moistened touch was felt. The following applies: neat cosmetic preparation composition (massage oil); 0.05 g, rubbed twenty times, wiped; seven panelists. As to the method: In Example 12, the PDO diisostearate obtained from Synthesis Example 1 was used as a cosmetic preparation composition (moisturizing ingredient) for a moisturizing cosmetic preparation (massage oil), and the moisturizing properties and the feeling of use thereof were evaluated.
The insides of the arms of seven panelists were washed with soap and water, and in addition, the washed surfaces were wiped with ethanol and naturally dried. Thereafter, each of the thus washed surfaces was evenly divided into eight equal areas, to which 0.05 g of the respective cosmetic preparation compositions of Example 12, and Comparative Examples 4 to 7 and 4A to 4C, was applied and massage was done by gently rubbing with a finger twenty times. Thereafter, the area was wiped with a dry cloth. On completion of this wiping, the moisturizing properties and the feeling of use of the respective cosmetic preparation compositions were evaluated in accordance with the same criteria as those of the moisturizing gels of Examples 6 to 8 mentioned above.

Data set [2] is described as follows: Viscosity by stress-controlled rheometer at 20° C. Format: physicochemical. As to the method: (§1) Next, the viscosity and the friction coefficient of the cosmetic preparation compositions of Example 12 and Comparative Examples 4 to 7 and 4A to 4C were measured.
The viscosity was measured by using a stress-controlled rheometer (Product No. RheoStress RS1, with a C60/2 Ti sensor, a product of Haake Company) at 20° C.

Data set [3] is described as follows: Friction coefficient on artificial leather (friction tester). It is filed as physicochemical. The settings on record: 5 μL on artificial leather, pressure of 100 g. As to the method: as §1
The friction coefficient was measured by such a way that: 5 μL of each cosmetic preparation composition was applied to the surface of an artificial leather (Product Name: Supplale, a product of Idemitsu Technofine Co., Ltd.), and the applied surface was measured for the friction coefficient and the change in the value of the friction coefficient, by using a friction tester (Type: TL201Ts, a product of Trinity-Lab Co., Ltd.) with a pressure of 100 g.

The nature of data set [4]: Oxidative stability by conductometric determination method (CDM, Rancimat). It is filed as physicochemical. The following applies: 3 g, 120° C., air flow 8 L/h. The procedure: Furthermore, the oxidative stability was compared between the cosmetic preparation compositions of Example 12 and Comparative Example 4. Specifically speaking, these cosmetic preparation compositions were evaluated for the oxidative stability by a conductometric determination method (CDM method). […] A greater increase in the conductivity per unit time means a lower oxidative stability of the cosmetic preparation composition. Conversely, a smaller increase in the conductivity per unit time means a higher oxidative stability of the cosmetic preparation composition. The conductivity was measured by using a rancimat instrument (Type: Rancimat 743, a product of Metrohm-Sibata Ltd.) in a condition where 3 g of the sample was examined under heating at 120° C. with an air flow rate of 8 L/h.

For the substance PDO diisostearate [Example 12], the Moisturizing properties result in data set [1] is listed as “Good”. Further, the “Viscosity (mPa · s) (20° C.)” value in data set [2] is 80.0 mPa · s. Also, in data set [3], the “Changed value of friction coefficient” value came to 0.0045 and the Friction coefficient is given as 0.140. Besides, the “Conductivity (CDM method) after 5 hours” value in data set [4] (after 5 hours) was 17 μS/cm. In data set [4] (after 10 hours), the “Conductivity (CDM method) after 10 hours” value is reported as 45 μS/cm. In addition, the “Conductivity (CDM method) after 15 hours” value in data set [4] (after 15 hours) was 83 μS/cm. Moreover, the “Conductivity (CDM method) after 20 hours” value in data set [4] (after 20 hours) came out at 127 μS/cm.
